pEC50: −log10 of the molar value.
How the values were obtained:
Experiment in all cases: HTRF cAMP assay in HEK293T
Format in all cases: cell-based
Olfr739 [1] = biological target: T1, Olfr739 (Mus musculus, UniProt E9Q1P0)
T1 sequence (E9Q1P0 1-309): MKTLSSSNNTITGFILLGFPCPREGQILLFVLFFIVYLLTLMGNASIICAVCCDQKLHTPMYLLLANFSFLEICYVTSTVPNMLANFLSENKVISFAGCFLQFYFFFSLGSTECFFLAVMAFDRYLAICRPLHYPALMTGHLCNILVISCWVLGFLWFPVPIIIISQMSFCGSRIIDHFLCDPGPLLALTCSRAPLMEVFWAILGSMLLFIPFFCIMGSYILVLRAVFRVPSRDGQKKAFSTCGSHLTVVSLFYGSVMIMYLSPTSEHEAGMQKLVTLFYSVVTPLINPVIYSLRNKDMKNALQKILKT

Olfr748 = biological target: T2, Olfr748 (Mus musculus, UniProt E9Q9Z0)
T2 sequence (E9Q9Z0 1-307): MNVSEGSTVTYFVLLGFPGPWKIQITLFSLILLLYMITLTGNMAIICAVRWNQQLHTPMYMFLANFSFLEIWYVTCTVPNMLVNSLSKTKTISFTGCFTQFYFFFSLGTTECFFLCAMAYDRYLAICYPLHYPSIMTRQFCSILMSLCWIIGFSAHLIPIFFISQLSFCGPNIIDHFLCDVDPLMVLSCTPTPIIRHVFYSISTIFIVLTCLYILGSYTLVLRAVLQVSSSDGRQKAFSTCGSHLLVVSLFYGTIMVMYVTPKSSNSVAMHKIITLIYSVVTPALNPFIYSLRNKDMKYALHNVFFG

Olfr743 = biological target: T3, Olfr743 (Mus musculus, UniProt L7N1Y2)
T3 sequence (L7N1Y2 1-311): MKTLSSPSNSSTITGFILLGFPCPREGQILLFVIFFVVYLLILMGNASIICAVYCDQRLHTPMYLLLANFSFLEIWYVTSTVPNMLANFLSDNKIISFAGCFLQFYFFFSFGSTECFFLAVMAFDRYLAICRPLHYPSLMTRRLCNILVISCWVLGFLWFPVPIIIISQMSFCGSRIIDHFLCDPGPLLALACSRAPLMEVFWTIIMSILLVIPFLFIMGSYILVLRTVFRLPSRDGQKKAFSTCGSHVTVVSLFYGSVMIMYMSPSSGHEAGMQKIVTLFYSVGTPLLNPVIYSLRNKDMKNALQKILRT

Olfr739 [2] = biological target: T1, Olfr739; details: partial agonist; range printed for four receptors together

pEC50 (Olfr739 [1])	pEC50 (Olfr748)	pEC50 (Olfr743)	% of the maximum indole response (Olfr739 [2])	SMILES
4.49	4.09	7.10		c1ccc2[nH]ccc2c1 [compound 37, indole]
			71-75%	COc1ccc2ccccc2c1 [compound 35, 2-methoxynaphthalene]

Source: paper doi:10.1101/760033v2 (biorxiv, 2019)
